According to ChEMBL document CHEMBL1201862, “PubChem BioAssay data set” (2004):
The source made the active and inactive calls.

Tests used:
Streptokinase A = target: T1, Streptokinase A (Streptococcus pyogenes serotype M1, UniProt P10520); test: viability-normalized secreted streptokinase activity reduction – plasminogen activation absorbance, OD405, dose response (AID 1914); assay type: functional, Streptococcus pyogenes M1 GAS;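 also: secreted streptokinase activity via plasminogen activation per viability signal from cell pellet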
T1 sequence (P10520 whole entry): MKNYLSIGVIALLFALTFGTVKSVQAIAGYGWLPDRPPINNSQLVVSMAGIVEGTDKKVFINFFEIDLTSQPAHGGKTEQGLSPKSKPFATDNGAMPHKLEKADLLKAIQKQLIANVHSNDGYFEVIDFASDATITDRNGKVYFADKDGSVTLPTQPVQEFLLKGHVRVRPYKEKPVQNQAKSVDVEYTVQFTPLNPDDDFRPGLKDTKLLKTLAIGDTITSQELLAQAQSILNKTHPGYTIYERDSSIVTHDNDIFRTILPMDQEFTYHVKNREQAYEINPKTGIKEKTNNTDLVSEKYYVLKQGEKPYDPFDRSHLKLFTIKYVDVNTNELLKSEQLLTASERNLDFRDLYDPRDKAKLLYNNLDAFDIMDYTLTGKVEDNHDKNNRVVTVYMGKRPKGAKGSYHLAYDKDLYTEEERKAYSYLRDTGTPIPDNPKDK

[1] = test system: Streptococcus sp. 'group A'; test: Streptococcus pyogenes SK(-)GAS viability under kanamycin – luminescence, BacTiterGlo, confirmation, counter-screen for streptokinase expression inhibitor project, dose response (AID 1900); assay type: functional, organism-based
Streptococcus = test: GAS UMAA2166 growth inhibition – luminescence, BacTiterGlo, counter-screen for streptokinase expression inhibitor project, dose response (AID 1915); assay type: functional, organism-based;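 also: potency for reduction of bacterial viability or growth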
[2] = target: T2, Heat shock factor protein 1 (Mus musculus, UniProt P38532); test: decrease of HSF1-responsive luciferase luminescence – cell-based, NIH3T3, dose retest, confirmation (AID 2382); assay type: functional;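 also: NIH3T3 fibroblasts with HSF1-driven luciferase reporter stressed by proteasome inhibitor MG132; luminescence from HSF1-driven luciferase expression after 8 hours of MG132 stress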
T2 sequence (P38532 whole entry): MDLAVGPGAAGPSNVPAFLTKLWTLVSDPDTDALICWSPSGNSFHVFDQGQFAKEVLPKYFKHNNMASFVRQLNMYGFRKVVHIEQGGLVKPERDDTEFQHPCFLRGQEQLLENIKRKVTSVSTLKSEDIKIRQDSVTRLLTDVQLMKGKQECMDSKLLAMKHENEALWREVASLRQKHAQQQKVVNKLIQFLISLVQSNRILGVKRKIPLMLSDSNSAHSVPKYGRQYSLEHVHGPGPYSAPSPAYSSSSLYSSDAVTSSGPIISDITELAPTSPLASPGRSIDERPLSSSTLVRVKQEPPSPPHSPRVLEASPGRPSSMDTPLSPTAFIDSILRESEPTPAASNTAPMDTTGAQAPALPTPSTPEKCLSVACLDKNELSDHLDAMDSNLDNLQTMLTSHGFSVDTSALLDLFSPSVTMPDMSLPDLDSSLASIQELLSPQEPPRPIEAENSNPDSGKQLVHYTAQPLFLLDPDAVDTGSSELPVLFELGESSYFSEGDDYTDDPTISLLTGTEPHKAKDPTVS

INS1 = test: INS-1E survival protection against cytokine death – cell-based, luminescence, retest, dose response (AID 449756); assay type: functional; settings: Rattus norvegicus;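 also: cell death triggered by IL-1 beta plus TNF-alpha plus IFN-gamma mixture; protective hits raise ATP signal compared with cytokine alone wells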
[3] = viability of uninfected HEp-2 cells – cell-based, HTS, cytotoxicity control for RSV inhibitor project, dose response (AID 2410); assay type: functional; settings: human respiratory syncytial virus
Cytochrome P450 2C19 = Cytochrome P450 2C19 (Homo sapiens, UniProt P33261); test: Cytochrome panel assay with activity outcomes. Panel member name: p450-cyp2c19 Compounds with AC50 equal or less than 10 uM are considered active; assay type: functional; settings: read-out: AC50
Chain of Cytochrome P450 2C19 (P33261 whole entry): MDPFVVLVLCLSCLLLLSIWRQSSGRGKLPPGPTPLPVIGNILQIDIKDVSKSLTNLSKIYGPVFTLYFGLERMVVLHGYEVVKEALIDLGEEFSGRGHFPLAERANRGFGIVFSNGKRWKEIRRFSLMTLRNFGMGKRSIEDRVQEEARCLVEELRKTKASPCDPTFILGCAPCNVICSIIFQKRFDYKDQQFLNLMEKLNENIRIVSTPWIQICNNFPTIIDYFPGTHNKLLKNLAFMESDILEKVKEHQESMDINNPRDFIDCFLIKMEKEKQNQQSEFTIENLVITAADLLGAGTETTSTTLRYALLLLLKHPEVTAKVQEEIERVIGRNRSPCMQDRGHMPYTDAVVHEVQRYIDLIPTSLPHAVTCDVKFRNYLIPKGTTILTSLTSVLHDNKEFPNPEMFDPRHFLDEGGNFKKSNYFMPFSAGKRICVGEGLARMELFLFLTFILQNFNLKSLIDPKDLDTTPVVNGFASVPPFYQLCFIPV

Cytochrome P450 1A2 = target: T3, Cytochrome P450 1A2 (Homo sapiens, UniProt P05177);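 also: PubChem cytochrome P450 panel assay, CYP1A2 panel member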
T3 sequence (P05177 whole entry): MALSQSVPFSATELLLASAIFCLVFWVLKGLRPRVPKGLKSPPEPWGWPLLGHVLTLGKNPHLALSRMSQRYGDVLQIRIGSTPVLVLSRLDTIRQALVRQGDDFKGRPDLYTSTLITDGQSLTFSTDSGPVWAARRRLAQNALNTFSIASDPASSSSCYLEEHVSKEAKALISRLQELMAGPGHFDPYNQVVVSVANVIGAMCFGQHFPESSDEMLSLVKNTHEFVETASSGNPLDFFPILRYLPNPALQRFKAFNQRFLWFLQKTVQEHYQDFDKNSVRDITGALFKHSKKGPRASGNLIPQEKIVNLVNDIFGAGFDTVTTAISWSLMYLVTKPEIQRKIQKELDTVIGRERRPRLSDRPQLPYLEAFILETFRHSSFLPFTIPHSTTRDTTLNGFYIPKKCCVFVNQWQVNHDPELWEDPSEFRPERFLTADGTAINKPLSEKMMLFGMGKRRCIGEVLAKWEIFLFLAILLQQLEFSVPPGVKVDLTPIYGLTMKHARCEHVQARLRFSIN

Cytochrome P450 2C9 = Cytochrome P450 2C9 (Homo sapiens, UniProt P11712)
Chain of Cytochrome P450 2C9 (P11712 whole entry): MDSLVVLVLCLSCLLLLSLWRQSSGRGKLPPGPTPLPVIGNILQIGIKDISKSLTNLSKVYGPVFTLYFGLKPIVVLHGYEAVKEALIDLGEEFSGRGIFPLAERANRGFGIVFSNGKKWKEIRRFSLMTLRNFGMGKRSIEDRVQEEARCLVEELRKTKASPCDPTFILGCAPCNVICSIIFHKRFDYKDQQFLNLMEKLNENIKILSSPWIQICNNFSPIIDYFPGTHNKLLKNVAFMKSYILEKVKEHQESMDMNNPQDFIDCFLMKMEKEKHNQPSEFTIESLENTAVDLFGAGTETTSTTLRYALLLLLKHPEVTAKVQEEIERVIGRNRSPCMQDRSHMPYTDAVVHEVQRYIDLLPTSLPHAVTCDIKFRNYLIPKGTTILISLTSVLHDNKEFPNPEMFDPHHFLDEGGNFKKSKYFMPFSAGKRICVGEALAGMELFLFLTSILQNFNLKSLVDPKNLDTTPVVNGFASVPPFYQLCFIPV

SMILES	EC50 [1]	EC50 (Streptococcus)	EC50 [2]	further results
C[C@H](CCC(=O)NCC(=O)O)[C@H]1CC[C@H]2[C@@H]3[C@H](O)C[C@@H]4C[C@H](O)CC[C@]4(C)[C@H]3C[C@H](O)[C@]12C [GLYCOCHOLIC ACID]	> 150 µM (not active)	> 150 µM (not active)	–	EC50 (Streptokinase A): > 150 µM (not active)
CCn1c(SCC(=O)Nc2oc(C)c3c(C)nnc(O)c23)nc2sc(C)c(C)c2c1=O	–	–	> 195 µM (not active)	–
Cc1nn(-c2ccccc2)c(O)c1/C=N/NC(=O)COc1ccccc1[N+](=O)[O-]	–	–	–	AC50 (INS1): 3.4 µM (active)
COc1ccc(CN2C(=O)c3ccccc3C(/C=N\OCc3ccc(C)cc3)C2=O)cc1 (configuration not stated)	1.67 µM (active)	11.2 µM (active)	–	EC50 (Streptokinase A): > 150 µM (not active)
COC(=O)C1=CN(c2ccc(OC)cc2)C=C(C(=O)OC)C1c1ccc(C)c([N+](=O)[O-])c1	–	–	–	CC50 [3]: 48.1 µM (active)
Fc1ccc2nc(Nc3nc4cc5c(cc4s3)OCO5)sc2c1	7.04 µM (active)	3.02 µM (active)	–	–
Cc1cc(C)cc(NC(=O)N2CCN(Cc3ccc4c(c3)OCO4)CC2)c1	–	–	> 195 µM (not active)	–
CC1(C)C[C@H](O)[C@]2(CO)CC[C@]3(C)C(=CCC4[C@@]5(C)CC[C@H](O)C(C)(C)C5CC[C@]43C)[C@@H]2C1 (some centres not stated)	–	–	–	CC50 [3]: 36.2 µM (active)
CCn1cnc2sc(C(=O)Oc3cccc(C)c3)c(C)c2c1=O	11.8 µM (active)	28.8 µM (active)	–	EC50 (Streptokinase A): > 150 µM (not active)
O=C(Cn1cnc2c(oc3ccccc32)c1=O)NCc1ccco1	–	–	–	AC50 (Cytochrome P450 2C19): 20 µM (inconclusive); AC50 (Cytochrome P450 1A2): 14.1 µM (inconclusive); AC50 (Cytochrome P450 2C9): 8.91 µM (inconclusive)
COc1ccc(C=O)cc1Cn1ccnc1C	–	–	> 195 µM (not active)	–
FC(F)(F)c1ccccc1/C=N/n1c(S)nnc1C1CCCCC1	8.41 µM (active)	15.7 µM (active)	–	EC50 (Streptokinase A): 32.4 µM (inconclusive)
Oc1ccccc1CNc1ccc(OC(F)(F)F)cc1	–	–	> 195 µM (not active)	–
Cc1cccc(NC(=O)c2ccc(S(=O)(=O)N(C)CC3CCCO3)cc2)c1C (configuration not stated)	> 150 µM (not active)	> 150 µM (not active)	–	EC50 (Streptokinase A): > 150 µM (not active)
O=C(COc1ccc(Cl)cc1)NCc1nnc2c3ccccc3c(-c3ccccc3)nn12	–	–	–	CC50 [3]: 17.9 µM (active)
Cn1c(=O)c2c3c(sc2n2c(SCc4ccccc4)nnc12)CCCC3	–	–	–	CC50 [3]: > 50 µM (active)
O=C(N/N=C/c1ccccc1)c1c(O)nc2ccccc2c1O	–	–	–	AC50 (INS1): 6.26 µM (active)
CCOC(=O)c1c(C)[nH]c(C(=O)OCC(=O)NC(C)(C)C)c1C	–	–	–	AC50 (INS1): 5.11 µM (active)
CCOC(=O)c1cccc(N2C(N)=NC(N)=NC2(C)C)c1	0.127 µM (active)	0.63 µM (active)	–	–
Cc1ccc(N(CC(=O)NCCSCc2ccco2)S(C)(=O)=O)cc1	–	–	> 195 µM (not active)	–
O=C(NCCC1CCCCN1S(=O)(=O)c1ccc(F)cc1)C(=O)Nc1ccccc1F (configuration not stated)	–	–	> 195 µM (not active)	–
c1ccc(-n2nnnc2Oc2ccc(-c3nnco3)cc2)cc1	–	–	> 195 µM (not active)	–
COc1cc2c3c(c1)/C(=C1/SC(=S)NC1=O)C(=O)N3C(C)(C)C=C2C	2.63 µM (active)	8.28 µM (active)	–	EC50 (Streptokinase A): 1.72 µM (active)
CCOC(=O)c1ccc(/N=c2\sc(C(=O)OC)cc(=O)n2Cc2ccc3c(c2)OCO3)cc1	–	–	–	CC50 [3]: 20.8 µM (active)
Cc1ccc(-c2cn(-c3ccccc3)c(S)n2)cc1C	–	–	> 195 µM (not active)	–
COc1cccc(NC(=S)N(CCc2c(C)[nH]c3ccc(C)cc23)Cc2cccs2)c1	–	–	–	CC50 [3]: 13.4 µM (active)

SMILES	EC50 [1]	EC50 (Streptococcus)	EC50 [2]	further results
Cc1nc2c(-c3ccccc3)c(C)nn2c(O)c1Cc1ccccc1	9.56 µM (active)	18.5 µM (active)	–	EC50 (Streptokinase A): > 50 µM (not active)
CC(Sc1nc2cc([N+](=O)[O-])ccc2n1-c1cccc(C(F)(F)F)c1)C(=O)NC(N)=O (configuration not stated)	> 150 µM (not active)	> 150 µM (not active)	–	EC50 (Streptokinase A): > 150 µM (not active)
Cc1ccc(S(=O)(=O)Nc2ccccc2N(C)S(=O)(=O)c2ccc(C)cc2)cc1	–	–	–	AC50 (INS1): 10.2 µM (active)
Cc1nn(C(C)C(=O)NC2C(=O)N3C(C(=O)O)=C(CSc4nnnn4C)CSC23)cc1Cl (configuration not stated)	0.112 µM (active)	0.337 µM (active)	–	–
COc1ccccc1Nc1ncnc2c1c(C)c(C)n2CCO	–	–	–	CC50 [3]: > 50 µM (active)
CC(=O)c1cccc(NC(=O)CN2C(=O)c3ccccc3C2=O)c1	–	–	> 195 µM (not active)	–
CC1(C)Cc2nc3sc4c(OCc5ccccc5)ncnc4c3cc2CO1	4.04 µM (active)	11 µM (active)	–	EC50 (Streptokinase A): > 150 µM (not active)
Cc1nnc(SCC(=O)Nc2nccs2)nc1O	–	–	–	AC50 (Cytochrome P450 2C19): 10 µM (inconclusive); AC50 (Cytochrome P450 1A2): 31.6 µM (inconclusive); AC50 (Cytochrome P450 2C9): 10 µM (inconclusive)
COC(=O)C1=C(C(=O)OC)[C@@H]2N(C)c3ccccc3[C@@]23C[C@@H](C(=O)OC)N(C(=O)CC(C)C)C3=N1	–	–	> 195 µM (not active)	–
CCOC(=O)N1CCN(C(=O)c2ccc3c(=O)n(CCC4=CCCCC4)c(=S)[nH]c3c2)CC1	–	> 150 µM (not active)	–	EC50 (Streptokinase A): 29.8 µM (active)
CN1C(=O)/C(=C/c2ccc(C(F)(F)F)cc2)Sc2ccc(C(=O)N3CCN(c4ccccn4)CC3)cc21	1.53 µM (active)	12.5 µM (active)	–	EC50 (Streptokinase A): > 150 µM (not active)
Cc1ccccc1Nc1nc(N)nc(CN(C)Cc2ccccc2Cl)n1	> 150 µM (not active)	> 150 µM (not active)	–	EC50 (Streptokinase A): > 150 µM (not active)
C=CCn1c(NCc2ccc(OC)cc2O)nc2ccccc21	–	–	–	CC50 [3]: 37.8 µM (active)
O=S(=O)(c1ccc2c(c1)OCCO2)N1CCC(c2nc(O)c3nnn(Cc4ccc(F)cc4)c3n2)CC1	–	–	–	CC50 [3]: 37.6 µM (active)
COc1ccccc1N1CC(C)C(=O)NC1=S (configuration not stated)	–	–	> 195 µM (not active)	–
CCOC(=O)Cn1c(CN2CCN(c3cccc(Cl)c3)CC2)nc2c1c(=O)[nH]c(=O)n2C	–	–	> 195 µM (not active)	–
CCc1ccc(Nc2n[n+](-c3ccccc3)c(-c3ccc(OC)c(Br)c3)s2)cc1	–	–	–	CC50 [3]: 31.3 µM (active)
CCN(CC(=O)NCC1CCCO1)S(=O)(=O)c1ccc(Cl)cc1 (configuration not stated)	> 150 µM (not active)	> 150 µM (not active)	–	EC50 (Streptokinase A): > 150 µM (not active)
CC1(O)CC(=O)N(c2ccccc2)O1 (configuration not stated)	–	–	–	AC50 (Cytochrome P450 2C19): 17.8 µM (inconclusive); AC50 (Cytochrome P450 1A2): 22.4 µM (inconclusive); AC50 (Cytochrome P450 2C9): 10 µM (inconclusive)
c1ccc2c(c1)CC1(CCCCC1)n1nnnc1-2	–	–	> 195 µM (not active)	–
CC12CC(c3ccccc3O1)C(C(=O)NCc1ccccc1)C(=O)N2 (configuration not stated)	–	–	> 195 µM (not active)	–
NCCCC[C@@H](C(=O)N1CCNCC1)n1cc([C@@H](N)CO)nn1	–	–	> 195 µM (not active)	–
Cc1c(C(=O)OCC(=O)N2CC(C)OC(C)C2)oc2ccc(Br)cc12 (configuration not stated)	–	–	> 195 µM (not active)	–
COc1cc(Cc2cc(N)nc(N)n2)cc(OC)c1OC	3.11 µM (active)	> 150 µM (not active)	–	EC50 (Streptokinase A): > 150 µM (not active)
COCC(C)NC(=O)c1ccc2nc(-c3ccccc3)c(-c3ccccc3)nc2c1 (configuration not stated)	–	–	> 195 µM (not active)	–
